Data reported in ChEMBL document CHEMBL5380777, “Efficacy, Mechanism, and Structure-Activity Relationship of 6-Methoxy Benzofuran Derivatives as a Useful Tool for Senile Osteoporosis” (J Med Chem, 2023).
Calls of active or inactive are those of the source. No cut-off for these calls is given here.

Key:
Danio rerio [1] = species on record: Danio rerio; experiment: Anti osteoporosis activity in prednisone induced wildtype 3 days post-fertilization AB zebrafish osteoporosis model assessed as increase in bone fluorescence intensity (RVB = 13620 +/- 1692); format: functional
MC3T3-E1 [2] = experiment: Induction of ALP activity in mouse MC3T3-E1 cells in osteogenic differentiation culture at 1 uM measured on day 7; format: functional, cell-based; settings: time 7.0 day
hERG (KCNH2) [3] = target: T1, hERG (KCNH2) (Homo sapiens, UniProt Q12809); experiment: Inhibition of human ERG stably expressed in CHO cells at 0.3 uM by whole-cell patch clamp method relative to control; format: toxicity, cell-based; settings: CHO cells stably expressing human ERG
T1 sequence (Q12809 whole entry): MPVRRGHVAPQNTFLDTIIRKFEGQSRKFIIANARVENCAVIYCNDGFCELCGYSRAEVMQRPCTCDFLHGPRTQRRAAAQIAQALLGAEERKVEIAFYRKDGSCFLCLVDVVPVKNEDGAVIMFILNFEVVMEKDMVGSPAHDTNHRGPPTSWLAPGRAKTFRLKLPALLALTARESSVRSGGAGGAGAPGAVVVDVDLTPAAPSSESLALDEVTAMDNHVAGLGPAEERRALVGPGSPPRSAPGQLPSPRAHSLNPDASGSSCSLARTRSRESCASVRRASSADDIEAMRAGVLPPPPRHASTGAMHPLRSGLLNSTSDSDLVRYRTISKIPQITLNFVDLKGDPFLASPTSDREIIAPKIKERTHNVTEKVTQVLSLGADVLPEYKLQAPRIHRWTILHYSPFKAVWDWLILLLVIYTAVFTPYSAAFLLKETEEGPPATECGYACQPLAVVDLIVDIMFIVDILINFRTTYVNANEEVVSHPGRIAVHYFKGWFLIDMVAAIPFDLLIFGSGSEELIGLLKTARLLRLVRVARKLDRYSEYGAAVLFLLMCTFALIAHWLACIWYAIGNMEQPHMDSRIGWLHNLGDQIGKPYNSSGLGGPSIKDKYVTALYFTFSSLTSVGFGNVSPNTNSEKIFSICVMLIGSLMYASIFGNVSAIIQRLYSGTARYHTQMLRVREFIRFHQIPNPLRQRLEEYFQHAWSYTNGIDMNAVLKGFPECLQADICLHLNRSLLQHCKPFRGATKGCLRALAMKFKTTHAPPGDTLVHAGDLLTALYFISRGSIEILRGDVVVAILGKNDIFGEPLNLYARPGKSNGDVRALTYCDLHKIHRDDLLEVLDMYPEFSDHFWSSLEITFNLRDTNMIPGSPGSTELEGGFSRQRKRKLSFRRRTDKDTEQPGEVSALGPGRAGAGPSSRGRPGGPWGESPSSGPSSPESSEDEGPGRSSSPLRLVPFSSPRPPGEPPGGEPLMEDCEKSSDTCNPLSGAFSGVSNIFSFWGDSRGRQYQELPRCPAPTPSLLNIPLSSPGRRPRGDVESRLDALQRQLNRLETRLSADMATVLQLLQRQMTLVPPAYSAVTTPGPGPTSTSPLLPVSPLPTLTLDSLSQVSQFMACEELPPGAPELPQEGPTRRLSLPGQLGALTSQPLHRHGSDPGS

[4] = Tmax in Sprague-Dawley rat by measuring metabolite 6-methoxybenzofuran-2-carboxylic acid at 10 mg/kg, po; format: ADME, organism-based; settings: in vivo
[5] = Apparent permeability from apical to basolateral side in human Caco-2 cells incubated upto 95 mins by LC-MS/MS analysis; format: ADME, cell-based; settings: read-out: permeability
[6] = MRT (0 to infinity) in Sprague-Dawley rat by measuring metabolite 6-methoxybenzofuran-2-carboxylic acid at 10 mg/kg, po; format: ADME, organism-based; settings: in vivo
hERG (KCNH2) [7] = target: T1, hERG (KCNH2); experiment: Inhibition of human ERG stably expressed in CHO cells at 1 uM by whole-cell patch clamp method relative to control; format: toxicity, cell-based; settings: CHO cells stably expressing human ERG
hERG (KCNH2) [8] = target: T1, hERG (KCNH2); experiment: Inhibition of human ERG stably expressed in CHO cells at 3 uM by whole-cell patch clamp method relative to control; format: toxicity, cell-based; settings: CHO cells stably expressing human ERG
Cytochrome P450 1A2 = target: T2, Cytochrome P450 1A2 (Homo sapiens, UniProt P05177); experiment: Inhibition of CYP1A2 (unknown origin) using phenacetin as substrate (reference value: 0.0292 uM); format: ADME
T2 sequence (P05177 whole entry): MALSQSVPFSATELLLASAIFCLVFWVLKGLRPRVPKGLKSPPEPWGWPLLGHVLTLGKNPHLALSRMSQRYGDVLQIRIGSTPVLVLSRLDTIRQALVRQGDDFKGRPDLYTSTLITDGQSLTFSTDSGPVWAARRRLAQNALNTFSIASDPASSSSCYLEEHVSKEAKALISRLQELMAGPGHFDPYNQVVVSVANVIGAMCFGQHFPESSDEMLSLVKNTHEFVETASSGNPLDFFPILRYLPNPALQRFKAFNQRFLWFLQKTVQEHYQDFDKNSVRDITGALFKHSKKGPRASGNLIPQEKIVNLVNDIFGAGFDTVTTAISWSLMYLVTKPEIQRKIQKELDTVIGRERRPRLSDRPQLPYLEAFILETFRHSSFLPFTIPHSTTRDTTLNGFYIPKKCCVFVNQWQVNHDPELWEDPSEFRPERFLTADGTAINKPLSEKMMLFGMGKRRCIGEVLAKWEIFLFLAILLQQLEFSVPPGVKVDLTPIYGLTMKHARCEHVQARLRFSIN

Cytochrome P450 2C9 = Cytochrome P450 2C9 (Homo sapiens, UniProt P11712); experiment: Inhibition of CYP2C9 (unknown origin) using tolbutamide as substrate (reference value: 1.9 uM); format: ADME
Cytochrome P450 2C9, sequence (P11712 whole entry): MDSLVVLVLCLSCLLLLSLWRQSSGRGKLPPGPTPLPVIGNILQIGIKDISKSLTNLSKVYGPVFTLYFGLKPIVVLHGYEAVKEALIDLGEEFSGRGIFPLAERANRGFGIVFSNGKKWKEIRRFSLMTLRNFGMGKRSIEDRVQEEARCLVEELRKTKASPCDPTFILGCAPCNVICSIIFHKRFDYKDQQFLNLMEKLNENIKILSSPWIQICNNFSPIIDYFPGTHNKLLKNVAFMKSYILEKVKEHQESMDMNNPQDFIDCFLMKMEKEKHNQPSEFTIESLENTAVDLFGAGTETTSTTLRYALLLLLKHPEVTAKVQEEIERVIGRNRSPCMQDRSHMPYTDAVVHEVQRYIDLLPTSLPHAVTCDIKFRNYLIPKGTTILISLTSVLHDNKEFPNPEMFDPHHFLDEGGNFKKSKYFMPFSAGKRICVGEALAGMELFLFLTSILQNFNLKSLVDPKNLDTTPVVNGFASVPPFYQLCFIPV

Cytochrome P450 3A4 [9] = target: T3, Cytochrome P450 3A4 (Homo sapiens, UniProt P08684); experiment: Inhibition of CYP3A4 (unknown origin) using testosterone as substrate (reference value: 0.0227 uM); format: ADME
T3 sequence (P08684 whole entry): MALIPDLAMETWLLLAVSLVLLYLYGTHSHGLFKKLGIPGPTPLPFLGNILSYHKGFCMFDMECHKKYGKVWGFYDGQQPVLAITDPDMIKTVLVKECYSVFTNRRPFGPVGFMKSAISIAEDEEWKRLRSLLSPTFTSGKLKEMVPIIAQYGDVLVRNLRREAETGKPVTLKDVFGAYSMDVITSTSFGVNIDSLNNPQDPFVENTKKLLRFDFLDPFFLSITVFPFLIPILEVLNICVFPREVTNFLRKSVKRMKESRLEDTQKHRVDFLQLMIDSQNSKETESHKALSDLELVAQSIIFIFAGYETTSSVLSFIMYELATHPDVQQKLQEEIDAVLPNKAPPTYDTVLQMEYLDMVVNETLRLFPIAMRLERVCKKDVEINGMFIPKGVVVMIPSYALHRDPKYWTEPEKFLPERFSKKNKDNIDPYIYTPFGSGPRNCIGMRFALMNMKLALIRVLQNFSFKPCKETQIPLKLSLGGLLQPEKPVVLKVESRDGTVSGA

Danio rerio [10] = species on record: Danio rerio; experiment: Anti osteoporosis activity in prednisone induced wildtype 3 days post-fertilization AB zebrafish osteoporosis model assessed as increase in osteoblast by measuring fluorescence intensity; format: functional, organism-based; settings: dose 0.078-1.25 µM
[11] = AUC (0 to t) in Sprague-Dawley rat by measuring metabolite 6-methoxybenzofuran-2-carboxylic acid at 10 mg/kg, po; format: ADME, organism-based; set-up: dose 10 mg/kg, route po; settings: in vivo
[12] = AUC (0 to infinity) in Sprague-Dawley rat by measuring metabolite 6-methoxybenzofuran-2-carboxylic acid at 10 mg/kg, po; format: ADME, organism-based; set-up: dose 10 mg/kg, route po; settings: in vivo
[13] = AUC (0 to infinity) in Sprague-Dawley rat by measuring metabolite 6-methoxybenzofuran-2-carboxylic acid at 2 mg/kg, iv; format: ADME, organism-based; set-up: dose 2 mg/kg, route iv; settings: in vivo
[14] = Efflux ratio of apparent permeability from basolateral side to apical side over apical side to basolateral side in human Caco-2 cells; format: ADME, cell-based
[15] = AUC (0 to t) in Sprague-Dawley rat by measuring metabolite 6-methoxybenzofuran-2-carboxylic acid at 2 mg/kg, iv; format: ADME, organism-based; set-up: dose 2 mg/kg, route iv; settings: in vivo
[16] = MRT (0 to infinity) in Sprague-Dawley rat by measuring metabolite 6-methoxybenzofuran-2-carboxylic acid at 2 mg/kg, iv; format: ADME, organism-based; settings: in vivo
Danio rerio [17] = species on record: Danio rerio; experiment: Anti osteoporosis activity in prednisone induced wildtype 3 days post-fertilization AB zebrafish osteoporosis model assessed as increase in bone mass; format: functional, organism-based; settings: dose 0.078-1.25 µM
Cytochrome P450 2C19 = Cytochrome P450 2C19 (Homo sapiens, UniProt P33261); experiment: Inhibition of CYP2C19 (unknown origin) using mephenytoin as substrate (reference value: 2.77 uM); format: ADME
Cytochrome P450 2C19, sequence (P33261 whole entry): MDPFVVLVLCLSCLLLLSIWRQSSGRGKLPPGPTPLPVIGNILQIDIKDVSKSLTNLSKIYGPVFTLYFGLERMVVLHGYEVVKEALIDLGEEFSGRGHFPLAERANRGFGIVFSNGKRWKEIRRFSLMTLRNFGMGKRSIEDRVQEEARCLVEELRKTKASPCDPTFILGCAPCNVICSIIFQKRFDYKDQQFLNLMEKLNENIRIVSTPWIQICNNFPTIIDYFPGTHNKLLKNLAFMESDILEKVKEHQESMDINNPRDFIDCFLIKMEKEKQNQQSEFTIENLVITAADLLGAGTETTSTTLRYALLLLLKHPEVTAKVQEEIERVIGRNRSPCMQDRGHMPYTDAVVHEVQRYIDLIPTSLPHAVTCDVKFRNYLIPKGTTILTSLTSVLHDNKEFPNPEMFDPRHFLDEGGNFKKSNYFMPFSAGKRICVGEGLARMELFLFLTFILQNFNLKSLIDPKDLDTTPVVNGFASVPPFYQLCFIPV

hERG (KCNH2) [18] = target: T1, hERG (KCNH2); experiment: Inhibition of human ERG stably expressed in CHO cells at 0.1 uM by whole-cell patch clamp method relative to control; format: toxicity, cell-based; settings: CHO cells stably expressing human ERG
[19] = Cmax in Sprague-Dawley rat by measuring metabolite 6-methoxybenzofuran-2-carboxylic acid at 10 mg/kg, po; format: ADME, organism-based; set-up: dose 10 mg/kg, route po; settings: in vivo
[20] = Half life in Sprague-Dawley rat by measuring metabolite 6-methoxybenzofuran-2-carboxylic acid at 2 mg/kg, iv; format: ADME, organism-based; settings: in vivo
[21] = Permeability from apical to basolateral side in human Caco-2 cells assessed as recovery incubated upto 95 mins by LC-MS/MS analysis relative control; format: ADME, cell-based; settings: read-out: Drug recovery
Danio rerio [22] = species on record: Danio rerio; experiment: Anti osteoporosis activity in prednisone induced wildtype 3 days post-fertilization AB zebrafish osteoporosis model assessed as increase in bone fluorescence intensity; format: functional, organism-based; settings: dose 0.078-1.25 µM
Cytochrome P450 3A4 [23] = target: T3, Cytochrome P450 3A4; experiment: Inhibition of CYP3A4 (unknown origin) using midazolam as substrate (reference value: 0.0413 uM); format: ADME
hERG (KCNH2) [24] = target: T1, hERG (KCNH2); experiment: Inhibition of human ERG stably expressed in CHO cells at 10 uM by whole-cell patch clamp method relative to control; format: toxicity, cell-based; settings: CHO cells stably expressing human ERG
Cytochrome P450 2D6 = Cytochrome P450 2D6 (Homo sapiens, UniProt P10635); experiment: Inhibition of CYP2D6 (unknown origin) using dextromethorphan as substrate (reference value: 0.0445 uM); format: ADME
Cytochrome P450 2D6, sequence (P10635 whole entry): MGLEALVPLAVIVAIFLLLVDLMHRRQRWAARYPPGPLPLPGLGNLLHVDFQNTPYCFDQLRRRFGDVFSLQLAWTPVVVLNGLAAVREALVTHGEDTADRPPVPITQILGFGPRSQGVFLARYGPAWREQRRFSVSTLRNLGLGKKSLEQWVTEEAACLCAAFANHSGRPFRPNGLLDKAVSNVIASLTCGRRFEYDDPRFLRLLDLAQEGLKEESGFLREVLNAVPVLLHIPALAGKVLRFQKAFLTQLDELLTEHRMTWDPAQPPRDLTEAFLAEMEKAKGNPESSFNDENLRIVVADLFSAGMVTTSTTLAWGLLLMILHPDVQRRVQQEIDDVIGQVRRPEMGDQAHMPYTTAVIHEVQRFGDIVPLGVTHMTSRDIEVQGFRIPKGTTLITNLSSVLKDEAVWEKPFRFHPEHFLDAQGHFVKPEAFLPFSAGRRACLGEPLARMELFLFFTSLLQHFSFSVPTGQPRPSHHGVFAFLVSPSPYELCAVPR

[25] = Apparent permeability from basolateral to apical side in human Caco-2 cells incubated upto 95 mins by LC-MS/MS analysis; format: ADME, cell-based; settings: read-out: permeability
[26] = Volume of distribution at steady state in Sprague-Dawley rat by measuring metabolite 6-methoxybenzofuran-2-carboxylic acid at 2 mg/kg, iv; format: ADME, organism-based; settings: in vivo
[27] = Half life in Sprague-Dawley rat by measuring metabolite 6-methoxybenzofuran-2-carboxylic acid at 10 mg/kg, po; format: ADME, organism-based; settings: in vivo
[28] = Cmax in Sprague-Dawley rat by measuring metabolite 6-methoxybenzofuran-2-carboxylic acid at 2 mg/kg, iv; format: ADME, organism-based; set-up: dose 2 mg/kg, route iv; settings: in vivo
Danio rerio [29] = species on record: Danio rerio; experiment: Anti osteoporosis activity in prednisone induced wildtype 3 days post-fertilization AB zebrafish osteoporosis model assessed as increase in bone mass at 1.25 uM relative to normal control group; format: functional, organism-based
[30] = Oral bioavailability in Sprague-Dawley rat by measuring metabolite 6-methoxybenzofuran-2-carboxylic acid at 10 mg/kg; format: ADME, organism-based; settings: in vivo
[31] = Permeability from basolateral to apical side in human Caco-2 cells assessed as recovery incubated upto 95 mins by LC-MS/MS analysis relative control; format: ADME, cell-based; settings: read-out: Drug recovery
MC3T3-E1 [32] = experiment: Cytotoxicity against mouse MC3T3-E1 cells; format: toxicity, cell-based

## COc1ccc2cc(C(=O)N[C@@H](C(=O)O)C(C)C)oc2c1
Danio rerio [1]
  Flu intensity: 30880
MC3T3-E1 [2]
  Activity: Active

## COc1ccc2cc(C(=O)N3CCN(C)CC3)oc2c1
Danio rerio [1]
  Flu intensity: 23902

## COc1ccc2cc(C(=O)N[C@H](Cc3ccccc3)C(=O)O)oc2c1
Danio rerio [1]
  Flu intensity: 27422

## COc1ccc2cc(C(=O)NCCN3CCOCC3)oc2c1
Danio rerio [1]
  Flu intensity: 26682

## COc1ccc2cc(C(=O)N[C@H](C)C(=O)O)oc2c1
Danio rerio [1]
  Flu intensity: 17768

## COc1ccc2cc(C(=O)NC3CCC(O)CC3)oc2c1 (stereo not drawn)
Danio rerio [1]
  Flu intensity: 25882

## COc1ccc2cc(C(=O)NCCCCN(C)C)oc2c1
Danio rerio [1]
  Flu intensity: 25439

## COc1ccc2cc(C(=O)NCC(=O)NCCN3CCCCC3)oc2c1
Danio rerio [1]
  Flu intensity: 31141
MC3T3-E1 [2]
  Activity: Active

## COc1ccc2cc(C(=O)N[C@H](CC(C)C)C(=O)O)oc2c1
Danio rerio [1]
  Flu intensity: 20236

## COc1ccc2cc(C(=O)N3CCC(C(F)(F)F)CC3)oc2c1
Danio rerio [1]
  Flu intensity: 16975

## COc1ccc2cc(C(=O)OCCN3CCCCC3)oc2c1
Danio rerio [1]
  Flu intensity: 23536

## COc1ccc2cc(C(=O)N3CCC(O)CC3)oc2c1
Danio rerio [1]
  Flu intensity: 20648

## COc1ccc2cc(C(=O)OCCN3CCOCC3)oc2c1
Danio rerio [1]
  Flu intensity: 33746
hERG (KCNH2) [3]
  inhibition at 0.3 µM: 2.36%
[4]
  Tmax: 0.25 h
MC3T3-E1 [2]
  Activity: Active
[5]
  Papp A→B at 1.583 h: 3.35 ×10⁻⁶ cm/s
[6]
  MRT: 2.26 h
hERG (KCNH2) [7]
  inhibition at 1 µM: 6.15%
hERG (KCNH2) [8]
  inhibition at 3 µM: 9.81%
Cytochrome P450 1A2
  IC50: 17 µM
Cytochrome P450 2C9
  IC50: > 25 µM
Cytochrome P450 3A4 [9]
  IC50: > 25 µM
Danio rerio [10]
  Activity: Dose-Dependent Effect
[11]
  AUCt: 25724 ng·h/mL
[12]
  AUCt: 25873 ng·h/mL
[13]
  AUC: 4635 ng·h/mL
[14]
  efflux ratio: 1.65
[15]
  AUC: 4557 ng·h/mL
[16]
  MRT: 1.25 h
Danio rerio [17]
  Activity: Dose-Dependent Effect
Cytochrome P450 2C19
  IC50: > 25 µM
hERG (KCNH2) [18]
  inhibition at 0.1 µM: 4.69%
[19]
  Cmax: 10380 ng/mL
[20]
  t1/2: 2.15 h
[21]
  recovery at 1.583 h: 22.7%
Danio rerio [22]
  Activity: Dose-Dependent Effect
Cytochrome P450 3A4 [23]
  IC50: > 25 µM
hERG (KCNH2) [24]
  inhibition at 10 µM: 20.6%
Cytochrome P450 2D6
  IC50: > 25 µM
[25]
  Papp B→A at 1.583 h: 5.53 ×10⁻⁶ cm/s
[26]
  Vdss: 0.545 L/kg
[27]
  t1/2: 3.07 h
[28]
  Cmax: 3943 ng/mL
Danio rerio [29]
  Activity: Active
[30]
  F: 113%
[31]
  recovery at 1.583 h: 74.3%

## COc1ccc2cc(C(=O)NCC(=O)NCCN3CCCC3)oc2c1
Danio rerio [1]
  Flu intensity: 21953

## CC(O)(P(=O)([O-])O)P(=O)([O-])O.[Na+].[Na+] [ETIDRONATE DISODIUM]
Danio rerio [1]
  Flu intensity: 23897

## COc1ccc2cc(C(=O)NCCN3CCCC3)oc2c1
Danio rerio [1]
  Flu intensity: 20961

## CCN(CC)CCCCNC(=O)c1cc2ccc(OC)cc2o1
Danio rerio [1]
  Flu intensity: 21289

## COc1ccc2cc(C(=O)NCCN3CCNCC3)oc2c1
Danio rerio [1]
  Flu intensity: 21709

## COc1ccc2cc(C(=O)NCCN3CCN(C)CC3)oc2c1
Danio rerio [1]
  Flu intensity: 25904

## COc1ccc2cc(C(=O)N3CCC(c4ccncc4)CC3)oc2c1
Danio rerio [1]
  Flu intensity: 30379
MC3T3-E1 [32]
  Activity: Toxic

## COc1ccc2cc(C(=O)NCCN3CCCCC3)oc2c1
Danio rerio [1]
  Flu intensity: 23225

## COc1ccc2cc(C(=O)NCC(=O)NCCN(C)C)oc2c1
Danio rerio [1]
  Flu intensity: 23919

## COc1ccc2cc(C(=O)N3CCC(c4ccc(F)cc4)CC3)oc2c1
Danio rerio [1]
  Flu intensity: 13963

## COc1ccc2cc(C(=O)NCC(=O)OCCN(C)C)oc2c1
Danio rerio [1]
  Flu intensity: 26758

## COc1ccc2cc(C(=O)NCC(=O)O)oc2c1
Danio rerio [1]
  Flu intensity: 22567

## CCN(CC)CCCNC(=O)c1cc2ccc(OC)cc2o1
Danio rerio [1]
  Flu intensity: 31394
MC3T3-E1 [2]
  Activity: Active

## COc1ccc2cc(C(=O)OCCN3CCN(C)CC3)oc2c1
Danio rerio [1]
  Flu intensity: 23765

## COc1ccc2cc(C(=O)OCCN3CCCC3)oc2c1
Danio rerio [1]
  Flu intensity: 24697

## COc1ccc2cc(C(=O)NCCCN(C)C)oc2c1
Danio rerio [1]
  Flu intensity: 18114

## COc1cc(N)c(Cl)cc1C(=O)NC1CCN(CCCOc2ccc(F)cc2)CC1OC (stereo not drawn) [CISAPRIDE]
hERG (KCNH2) [3]
  inhibition at 0.3 µM: 98.2%
